{"source": "ChEMBL document CHEMBL4804284", "set-up_in_all_cases": "scale not given: the % may be the effect or the level left", "key": {"[1]": {"molecular_target": "Interleukin-1 receptor-associated kinase 4 (Homo sapiens) (UniProt Q9NWZ3)", "experiment": "Inhibition of DNA-tagged human IRAK4 assessed as percent of control at 50000 nM by qPCR analysis relative to control"}, "[2]": {"test_system": "Tyrosine-protein kinase ABL1 (Homo sapiens), P00519 [Y253F]", "experiment": "Inhibition of DNA-tagged phosphorylated human ABL1 Y253F mutant assessed as percent of control at 50000 nM by qPCR analysis relative to control"}, "[3]": {"molecular_target": "Serine/threonine-protein kinase PAK 6 (Homo sapiens) (UniProt Q9NQU5)", "experiment": "Inhibition of DNA-tagged human PAK6 assessed as percent of control at 50000 nM by qPCR analysis relative to control"}, "[4]": {"molecular_target": "Mitogen-activated protein kinase 11 (Homo sapiens) (UniProt Q15759)", "experiment": "Inhibition of DNA-tagged human p38-beta assessed as percent of control at 50000 nM by qPCR analysis relative to control"}, "[5]": {"molecular_target": "Dual specificity mitogen-activated protein kinase kinase 5 (Homo sapiens) (UniProt Q13163)", "experiment": "Inhibition of DNA-tagged human MEK5 assessed as percent of control at 50000 nM by qPCR analysis relative to control"}, "[6]": {"test_system": "Receptor-type tyrosine-protein kinase FLT3 (Homo sapiens), P36888 [K663Q]", "experiment": "Inhibition of DNA-tagged human FLT3 K663Q mutant assessed as percent of control at 50000 nM by qPCR analysis relative to control"}, "[7]": {"molecular_target": "ALK tyrosine kinase receptor (Homo sapiens) (UniProt Q9UM73)", "experiment": "Inhibition of DNA-tagged human ALK assessed as percent of control at 50000 nM by qPCR analysis relative to control"}, "[8]": {"test_system": "Epidermal growth factor receptor (Homo sapiens), P00533 [T790M]", "experiment": "Inhibition of DNA-tagged human EGFR T790M mutant assessed as percent of control at 50000 nM by qPCR analysis relative to control"}, "[9]": {"molecular_target": "Cyclin-dependent kinase-like 1 (Homo sapiens) (UniProt Q00532)", "experiment": "Inhibition of DNA-tagged human CDKL1 assessed as percent of control at 50000 nM by qPCR analysis relative to control"}, "[10]": {"molecular_target": "Maternal embryonic leucine zipper kinase (Homo sapiens) (UniProt Q14680)", "sequence (Q14680 whole entry, looked up)": "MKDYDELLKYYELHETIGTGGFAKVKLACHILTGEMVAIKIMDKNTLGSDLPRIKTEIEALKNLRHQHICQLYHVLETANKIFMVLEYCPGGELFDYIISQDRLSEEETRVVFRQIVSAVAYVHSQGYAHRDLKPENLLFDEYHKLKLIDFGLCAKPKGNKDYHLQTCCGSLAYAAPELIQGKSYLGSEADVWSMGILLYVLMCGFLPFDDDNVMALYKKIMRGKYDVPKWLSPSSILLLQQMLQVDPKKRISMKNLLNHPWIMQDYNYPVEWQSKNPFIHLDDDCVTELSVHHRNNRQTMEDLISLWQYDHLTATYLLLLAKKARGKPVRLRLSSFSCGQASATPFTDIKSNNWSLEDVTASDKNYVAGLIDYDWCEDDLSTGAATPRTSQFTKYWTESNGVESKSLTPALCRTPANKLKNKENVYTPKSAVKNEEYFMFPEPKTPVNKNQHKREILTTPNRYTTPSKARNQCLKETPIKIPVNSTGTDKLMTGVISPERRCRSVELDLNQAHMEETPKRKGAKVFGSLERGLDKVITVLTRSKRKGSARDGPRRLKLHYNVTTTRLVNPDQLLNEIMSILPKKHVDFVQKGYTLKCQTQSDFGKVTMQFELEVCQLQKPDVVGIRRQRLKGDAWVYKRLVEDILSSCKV", "experiment": "Inhibition of DNA-tagged human MELK assessed as percent of control at 50000 nM by qPCR analysis relative to control"}, "[11]": {"molecular_target": "Tyrosine-protein kinase JAK1 (Homo sapiens) (UniProt P23458)", "experiment": "Inhibition of DNA-tagged human JAK1 JH1 catalytic domain assessed as percent of control at 50000 nM by qPCR analysis relative to control"}, "[12]": {"molecular_target": "Receptor-interacting serine/threonine-protein kinase 2 (Homo sapiens) (UniProt O43353)", "sequence (O43353 whole entry)": "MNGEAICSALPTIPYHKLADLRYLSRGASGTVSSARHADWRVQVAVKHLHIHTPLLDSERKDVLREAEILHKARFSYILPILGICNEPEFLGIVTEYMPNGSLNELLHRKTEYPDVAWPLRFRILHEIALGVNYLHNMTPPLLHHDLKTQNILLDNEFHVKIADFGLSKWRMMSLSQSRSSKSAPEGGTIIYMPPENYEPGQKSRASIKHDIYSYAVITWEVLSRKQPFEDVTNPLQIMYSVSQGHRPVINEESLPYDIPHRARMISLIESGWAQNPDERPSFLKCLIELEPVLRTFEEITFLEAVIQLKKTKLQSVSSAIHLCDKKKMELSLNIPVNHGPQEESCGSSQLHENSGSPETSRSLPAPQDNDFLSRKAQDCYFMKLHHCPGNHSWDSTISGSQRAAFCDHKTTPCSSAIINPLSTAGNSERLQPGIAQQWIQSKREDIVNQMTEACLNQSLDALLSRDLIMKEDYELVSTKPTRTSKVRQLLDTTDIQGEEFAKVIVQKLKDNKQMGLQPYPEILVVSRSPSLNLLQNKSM", "experiment": "Inhibition of DNA-tagged human RIPK2 assessed as percent of control at 50000 nM by qPCR analysis relative to control"}, "[13]": {"molecular_target": "Dual specificity mitogen-activated protein kinase kinase 3 (Homo sapiens) (UniProt P46734)", "sequence (P46734 whole entry)": "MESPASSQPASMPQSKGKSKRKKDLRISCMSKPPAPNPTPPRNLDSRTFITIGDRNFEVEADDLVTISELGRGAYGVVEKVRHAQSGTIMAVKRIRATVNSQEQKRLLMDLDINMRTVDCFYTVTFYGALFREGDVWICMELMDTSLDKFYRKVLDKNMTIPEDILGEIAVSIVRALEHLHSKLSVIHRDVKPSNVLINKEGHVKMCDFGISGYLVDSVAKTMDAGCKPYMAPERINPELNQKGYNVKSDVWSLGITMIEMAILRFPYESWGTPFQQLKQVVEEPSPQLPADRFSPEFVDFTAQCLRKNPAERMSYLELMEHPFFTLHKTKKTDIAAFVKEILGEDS", "experiment": "Inhibition of DNA-tagged human MEK3 assessed as percent of control at 50000 nM by qPCR analysis relative to control"}, "[14]": {"molecular_target": "RAF proto-oncogene serine/threonine-protein kinase (Homo sapiens) (UniProt P04049)", "experiment": "Inhibition of DNA-tagged human RAF1 assessed as percent of control at 50000 nM by qPCR analysis relative to control"}, "[15]": {"molecular_target": "Mitogen-activated protein kinase kinase kinase 1 (Homo sapiens) (UniProt Q13233)", "sequence (Q13233 whole entry)": "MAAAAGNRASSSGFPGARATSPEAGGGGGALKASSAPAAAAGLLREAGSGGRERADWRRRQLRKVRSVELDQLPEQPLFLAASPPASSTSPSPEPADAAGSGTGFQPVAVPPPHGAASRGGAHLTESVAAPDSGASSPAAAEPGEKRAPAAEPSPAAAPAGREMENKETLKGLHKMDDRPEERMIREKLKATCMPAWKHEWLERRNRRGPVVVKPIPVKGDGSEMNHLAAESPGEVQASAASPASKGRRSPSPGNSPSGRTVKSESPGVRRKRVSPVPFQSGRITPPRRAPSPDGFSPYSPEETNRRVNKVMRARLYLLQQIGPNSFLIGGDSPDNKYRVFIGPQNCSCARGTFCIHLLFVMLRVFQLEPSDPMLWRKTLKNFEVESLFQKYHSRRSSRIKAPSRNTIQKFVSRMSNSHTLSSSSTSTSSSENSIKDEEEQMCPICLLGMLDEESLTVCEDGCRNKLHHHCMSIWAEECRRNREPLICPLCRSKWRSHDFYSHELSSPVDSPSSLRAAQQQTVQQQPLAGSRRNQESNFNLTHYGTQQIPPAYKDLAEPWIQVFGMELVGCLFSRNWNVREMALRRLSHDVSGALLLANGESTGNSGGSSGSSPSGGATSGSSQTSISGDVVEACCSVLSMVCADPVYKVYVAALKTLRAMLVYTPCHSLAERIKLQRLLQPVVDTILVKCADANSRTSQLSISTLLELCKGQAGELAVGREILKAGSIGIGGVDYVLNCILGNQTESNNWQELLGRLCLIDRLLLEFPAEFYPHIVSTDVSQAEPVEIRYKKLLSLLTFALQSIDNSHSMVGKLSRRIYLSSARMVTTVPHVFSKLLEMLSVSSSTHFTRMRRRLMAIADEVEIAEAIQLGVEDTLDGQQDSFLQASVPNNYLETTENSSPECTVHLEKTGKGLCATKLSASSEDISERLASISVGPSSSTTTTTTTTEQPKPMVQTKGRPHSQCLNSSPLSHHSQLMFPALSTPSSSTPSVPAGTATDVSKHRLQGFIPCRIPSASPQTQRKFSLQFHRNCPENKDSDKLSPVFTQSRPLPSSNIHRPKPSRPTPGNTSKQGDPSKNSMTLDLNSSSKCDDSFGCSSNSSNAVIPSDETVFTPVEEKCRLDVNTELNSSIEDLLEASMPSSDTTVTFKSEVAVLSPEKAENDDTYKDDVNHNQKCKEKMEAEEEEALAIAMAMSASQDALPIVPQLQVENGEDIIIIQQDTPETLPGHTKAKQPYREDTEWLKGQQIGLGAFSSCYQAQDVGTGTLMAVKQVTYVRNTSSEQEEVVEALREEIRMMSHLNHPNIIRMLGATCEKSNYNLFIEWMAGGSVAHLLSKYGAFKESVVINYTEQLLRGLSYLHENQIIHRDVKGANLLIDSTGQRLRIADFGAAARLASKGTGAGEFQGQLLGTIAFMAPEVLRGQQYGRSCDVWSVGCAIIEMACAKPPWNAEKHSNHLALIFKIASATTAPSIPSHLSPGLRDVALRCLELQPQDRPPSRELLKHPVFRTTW", "experiment": "Inhibition of DNA-tagged human MAP3K1 assessed as percent of control at 50000 nM by qPCR analysis relative to control"}, "[16]": {"molecular_target": "Serine/threonine-protein kinase TAO3 (Homo sapiens) (UniProt Q9H2K8)", "experiment": "Inhibition of DNA-tagged human TAOK3 assessed as percent of control at 50000 nM by qPCR analysis relative to control"}, "[17]": {"molecular_target": "Leukocyte tyrosine kinase receptor (Homo sapiens) (UniProt P29376)", "experiment": "Inhibition of DNA-tagged human LTK assessed as percent of control at 50000 nM by qPCR analysis relative to control"}, "[18]": {"molecular_target": "Ephrin type-B receptor 4 (Homo sapiens) (UniProt P54760)", "sequence (P54760 whole entry)": "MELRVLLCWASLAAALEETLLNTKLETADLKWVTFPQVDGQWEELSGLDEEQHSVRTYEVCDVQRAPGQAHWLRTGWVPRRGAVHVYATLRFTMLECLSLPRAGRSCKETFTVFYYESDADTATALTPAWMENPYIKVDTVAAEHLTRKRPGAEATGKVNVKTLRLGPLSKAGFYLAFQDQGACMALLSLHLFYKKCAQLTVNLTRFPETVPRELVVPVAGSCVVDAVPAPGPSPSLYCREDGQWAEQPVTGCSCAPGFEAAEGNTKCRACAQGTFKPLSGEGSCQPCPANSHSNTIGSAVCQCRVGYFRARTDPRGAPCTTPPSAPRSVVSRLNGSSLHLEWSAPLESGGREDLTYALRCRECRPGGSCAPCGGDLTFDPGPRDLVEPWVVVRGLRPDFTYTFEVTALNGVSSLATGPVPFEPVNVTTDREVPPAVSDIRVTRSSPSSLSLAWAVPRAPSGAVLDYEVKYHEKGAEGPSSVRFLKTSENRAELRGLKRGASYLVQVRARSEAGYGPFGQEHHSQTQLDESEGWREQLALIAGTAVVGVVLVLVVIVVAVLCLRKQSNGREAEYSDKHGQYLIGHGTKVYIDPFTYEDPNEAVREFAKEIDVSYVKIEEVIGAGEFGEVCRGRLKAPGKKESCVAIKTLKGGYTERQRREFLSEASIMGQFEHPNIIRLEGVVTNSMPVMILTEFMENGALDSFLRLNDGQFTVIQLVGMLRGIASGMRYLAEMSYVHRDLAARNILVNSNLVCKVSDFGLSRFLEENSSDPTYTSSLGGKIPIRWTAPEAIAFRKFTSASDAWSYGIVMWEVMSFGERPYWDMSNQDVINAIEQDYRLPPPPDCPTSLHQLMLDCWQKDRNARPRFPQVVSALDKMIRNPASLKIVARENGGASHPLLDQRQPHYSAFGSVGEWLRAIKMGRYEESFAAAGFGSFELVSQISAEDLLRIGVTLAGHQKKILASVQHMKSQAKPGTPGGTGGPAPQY", "experiment": "Inhibition of DNA-tagged human EPHB4 assessed as percent of control at 50000 nM by qPCR analysis relative to control"}, "[19]": {"test_system": "Epidermal growth factor receptor (Homo sapiens), P00533 [L858R,T790M]", "experiment": "Inhibition of DNA-tagged human EGFR L858R/T790M double mutant assessed as percent of control at 50000 nM by qPCR analysis relative to control"}, "[20]": {"molecular_target": "Serine/threonine-protein kinase 33 (Homo sapiens) (UniProt Q9BYT3)", "experiment": "Inhibition of DNA-tagged human STK33 assessed as percent of control at 50000 nM by qPCR analysis relative to control"}, "[21]": {"molecular_target": "Serine/threonine-protein kinase ICK (Homo sapiens) (UniProt Q9UPZ9)", "experiment": "Inhibition of DNA-tagged human ICK assessed as percent of control at 50000 nM by qPCR analysis relative to control"}, "[22]": {"molecular_target": "Serine/threonine-protein kinase tousled-like 1 (Homo sapiens) (UniProt Q9UKI8)", "experiment": "Inhibition of DNA-tagged human TLK1 assessed as percent of control at 50000 nM by qPCR analysis relative to control"}, "[23]": {"test_system": "Hepatocyte growth factor receptor (Homo sapiens), P08581 [M1250T]", "experiment": "Inhibition of DNA-tagged human MET M1250T mutant assessed as percent of control at 50000 nM by qPCR analysis relative to control"}, "[24]": {"molecular_target": "Ribosomal protein S6 kinase alpha-6 (Homo sapiens) (UniProt Q9UK32)", "experiment": "Inhibition of DNA-tagged human N-terminal RSK4 kinase domain 1 assessed as percent of control at 50000 nM by qPCR analysis relative to control"}, "[25]": {"test_system": "Receptor-type tyrosine-protein kinase FLT3 (Homo sapiens), P36888 [D835H]", "experiment": "Inhibition of DNA-tagged human FLT3 D835H mutant assessed as percent of control at 50000 nM by qPCR analysis relative to control"}, "[26]": {"molecular_target": "Serine/threonine-protein kinase TNNI3K (Homo sapiens) (UniProt Q59H18)", "experiment": "Inhibition of DNA-tagged human TNNI3K assessed as percent of control at 50000 nM by qPCR analysis relative to control"}, "[27]": {"molecular_target": "Macrophage-stimulating protein receptor (Homo sapiens) (UniProt Q04912)", "experiment": "Inhibition of DNA-tagged human MST1R assessed as percent of control at 50000 nM by qPCR analysis relative to control"}, "[28]": {"molecular_target": "Serine/threonine-protein kinase Nek7 (Homo sapiens) (UniProt Q8TDX7)", "sequence (Q8TDX7 whole entry, looked up)": "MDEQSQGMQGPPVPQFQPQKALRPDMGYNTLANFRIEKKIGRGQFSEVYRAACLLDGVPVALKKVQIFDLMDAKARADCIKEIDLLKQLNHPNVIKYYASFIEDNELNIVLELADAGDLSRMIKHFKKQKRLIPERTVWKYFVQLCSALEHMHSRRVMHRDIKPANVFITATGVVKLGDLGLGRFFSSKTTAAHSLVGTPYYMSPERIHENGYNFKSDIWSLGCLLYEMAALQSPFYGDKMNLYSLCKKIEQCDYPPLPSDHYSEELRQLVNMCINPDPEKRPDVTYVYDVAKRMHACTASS", "experiment": "Inhibition of DNA-tagged human NEK7 assessed as percent of control at 50000 nM by qPCR analysis relative to control"}, "[29]": {"molecular_target": "Interleukin-1 receptor-associated kinase 1 (Homo sapiens) (UniProt P51617)", "sequence (P51617 whole entry, looked up)": "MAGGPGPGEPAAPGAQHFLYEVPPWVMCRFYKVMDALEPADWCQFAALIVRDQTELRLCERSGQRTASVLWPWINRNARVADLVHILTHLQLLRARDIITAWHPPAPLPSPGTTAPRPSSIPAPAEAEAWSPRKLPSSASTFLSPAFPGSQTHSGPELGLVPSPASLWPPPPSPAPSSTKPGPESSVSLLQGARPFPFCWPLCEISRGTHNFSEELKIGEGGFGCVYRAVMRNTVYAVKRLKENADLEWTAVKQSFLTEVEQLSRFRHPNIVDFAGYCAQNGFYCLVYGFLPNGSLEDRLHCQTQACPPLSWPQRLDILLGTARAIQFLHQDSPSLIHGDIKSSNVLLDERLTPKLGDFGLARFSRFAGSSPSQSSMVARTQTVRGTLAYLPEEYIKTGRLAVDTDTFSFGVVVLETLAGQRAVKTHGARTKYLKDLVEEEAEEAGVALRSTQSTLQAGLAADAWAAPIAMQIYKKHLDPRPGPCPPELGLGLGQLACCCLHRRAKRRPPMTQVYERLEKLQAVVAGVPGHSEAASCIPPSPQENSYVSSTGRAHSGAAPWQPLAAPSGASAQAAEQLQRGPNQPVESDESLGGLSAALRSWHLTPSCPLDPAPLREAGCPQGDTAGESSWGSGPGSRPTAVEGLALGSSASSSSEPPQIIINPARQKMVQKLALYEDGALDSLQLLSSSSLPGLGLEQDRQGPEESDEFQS", "experiment": "Inhibition of DNA-tagged human IRAK1 assessed as percent of control at 50000 nM by qPCR analysis relative to control"}}}
{"molecule": "CN1C(=O)/C(=C2/C(=O)Nc3ccccc32)c2ccccc21", "values": [{"measurement": "Activity", "setting": "[1]", "result": 75, "unit": "%"}, {"measurement": "Activity", "setting": "[2]", "result": 100, "unit": "%"}, {"measurement": "Activity", "setting": "[3]", "result": 100, "unit": "%"}, {"measurement": "Activity", "setting": "[4]", "result": 100, "unit": "%"}, {"measurement": "Activity", "setting": "[5]", "result": 97, "unit": "%"}, {"measurement": "Activity", "setting": "[6]", "result": 91, "unit": "%"}, {"measurement": "Activity", "setting": "[7]", "result": 97, "unit": "%"}, {"measurement": "Activity", "setting": "[8]", "result": 96, "unit": "%"}, {"measurement": "Activity", "setting": "[9]", "result": 79, "unit": "%"}, {"measurement": "Activity", "setting": "[10]", "result": 83, "unit": "%"}, {"measurement": "Activity", "setting": "[11]", "result": 94, "unit": "%"}, {"measurement": "Activity", "setting": "[12]", "result": 100, "unit": "%"}, {"measurement": "Activity", "setting": "[13]", "result": 72, "unit": "%"}, {"measurement": "Activity", "setting": "[14]", "result": 100, "unit": "%"}, {"measurement": "Activity", "setting": "[15]", "result": 83, "unit": "%"}, {"measurement": "Activity", "setting": "[16]", "result": 85, "unit": "%"}, {"measurement": "Activity", "setting": "[17]", "result": 92, "unit": "%"}, {"measurement": "Activity", "setting": "[18]", "result": 98, "unit": "%"}, {"measurement": "Activity", "setting": "[19]", "result": 98, "unit": "%"}, {"measurement": "Activity", "setting": "[20]", "result": 100, "unit": "%"}, {"measurement": "Activity", "setting": "[21]", "result": 92, "unit": "%"}, {"measurement": "Activity", "setting": "[22]", "result": 81, "unit": "%"}, {"measurement": "Activity", "setting": "[23]", "result": 80, "unit": "%"}, {"measurement": "Activity", "setting": "[24]", "result": 99, "unit": "%"}, {"measurement": "Activity", "setting": "[25]", "result": 100, "unit": "%"}, {"measurement": "Activity", "setting": "[26]", "result": 95, "unit": "%"}, {"measurement": "Activity", "setting": "[27]", "result": 92, "unit": "%"}, {"measurement": "Activity", "setting": "[28]", "result": 59, "unit": "%"}, {"measurement": "Activity", "setting": "[29]", "result": 64, "unit": "%"}]}
